# Measurements: patent publication US20220033405A1, “PHARMACEUTICAL COMPOSITION FOR PREVENTING OR TREATING CANCER CONTAINING PLK1 INHIBITOR AS ACTIVE INGREDIENT” (NATIONAL CANCER CENTER, priority 2018, published 2022)
# Columns and labels:
# [1] = test system: SNU449 human liver cancer cells; assay: Reactivity of M2 variants in SNU449; type: cell-based
# Method: (§1) To examine the ability of the compound to inhibit the growth of the breast cancer cell line, the compounds was treated at each indicated μM concentration 1 and 3 days after cell attachment, and the control was treated with a 0.1% solvent (DMSO). After another two days, the cell lines that were attached to the culture plate and grew were rinsed with 1×PBS and treated with 4% paraformaldehyde at room temperature for 10 minutes to fix the cells. Then, after cells were rinsed twice with PBS, the fixed cells were treated with a 0.5% Triton X-100 solution and reacted at room temperature for 15 minutes, rinsed another three times with PBS, and then treated with a DAPI reagent at 0.5 μg/ml, and reacted at 37° C. for 10 minutes to stain the cell nuclei. After the cells were additionally rinsed once with PBS, cells stained with DAPI were photographed by Cytation 3, and the resulting images were analyzed with Gen5 software (Biotek, USA). Meanwhile, cells that grew in a floating manner without being attached to the culture plate were treated with a 4% paraformaldehyde solution, reacted at room temperature for 10 minutes to fix the cells, and then photographed in a bright field by Cytation3, and the resulting images were analyzed by Gen5 software (Biotek, USA).
# (§2) To analyze the ability to inhibit the growth of liver cancer cell lines, 6.6×10^3 HepG2 cells per well, 1×10^3 cells of each of Hep3B, SNU-475, and SNU-449 per well, and 2×10^3 SNU-387 cells per well were aliquoted in a 96-well plate, cultured in the same manner as described above, treated with Compound 2 (M2), Compound 3 (M4), Compound 4 (M21), Compound 5 (M23), and Compound 6 (M25), and then the ability to inhibit the growth of cells was analyzed.
# [2] = test system: HepG2 human liver cancer cells; assay: Reactivity of M2 variants in HepG2; type: cell-based
# Method: as §1, §2
# [3] = test system: NCAPG2 in HEK293 cell line; assay: Staining of NCAPG2 in chromosome arm and kinetochore; type: cell-based; settings: HEK293, 50 uM, 24 hours, compared to the control
# PLK1 = PLK1 position in the cell (r-tubulin, PLK1, DAPI staining); type: cell-based; settings: middle stage of cell division
# HepG2 cell = assay: Apoptosis by annexin V-FITC / PI flow cytometry; type: cell-based; settings: HepG2, 3 days; M2 20 or 100 μM; BI2536 20 or 100 nM
# Method: To analyze the pattern of apoptosis by exposure to M2, HepG2 cell, a hepatocellular carcinoma cell line, were treated with 20 or 100 μM M2 and 20 or 100 nM BI2536 for 3 days. The apoptosis was detected by annexin V-fluorescein isothiocyanate (annexin V-FITC) and propidium iodide (PI) staining of necrotic and apoptosis cells. First, cells were harvested and washed once with PBS. The cells were then resuspended in a 100 μl binding buffer containing 4 μl of Annexin V (BD, 51-65874X) and PI (BD, 51-66211E). The cells were stained at 37° C. for 15 minutes in the dark and then analyzed using FACSan (BD, San Jose, Calif.). Data was analyzed using CELLQuest software (BD).
# HepG2 cells = assay: Cell viability after treatment (Hoechst 33342); type: cell-based; settings: HepG2, various concentrations, two treatments 48 hours apart
# Method: HepG2 cells, a hepatocellular carcinoma cell line, were plated with 4 to 6 replications at each hit compound concentration in a 96-well microtiter plate supplemented with a culture medium. The hit compound dissolved in DMSO was added the next day according to the design of experiments, and the number of seeded cells was determined by the cell density reaching 80% on the final day of the protocol treated as a cell control. After 24 hours of cell seeding, cells were treated with hit compounds (M2 and BI2536) at various concentrations, and 48 hours after primary treatment, the medium was aspirated and then secondary treatment was performed. After 48 hours, cell nuclei were visualized by 2.5 μM Hoechst 33342 staining at 37° C. for 30 minutes, then the medium was aspirated and washed with a fresh medium. The plate was read using Cytation™ 3 (BioTek, USA), the cell viability was analyzed, and the results were presented as a relative percentage of viable cells after treatment with the hit compound compared to the control treatment.
# [4] = test system: JIMT1 human breast cancer cells; assay: Cancer cell growth inhibition, M2 variants in JIMT1; type: cell-based
# Method: as §1
# human liver cancer PDX = assay: Orthotopic xenograft model using human liver cancer PDX; type: in vivo, BalB/C nude mice; settings: M2 40 mg/kg i.p. once every two days, 11 treatments for 3 weeks
# Method: A cancer tissue isolated from human liver cancer was transplanted into skin tissues of BalB/C nude mice and the skin tissues were grown into cancer tissues, so that a tissue established as a PDX model was used, uniformly cut into 1 mm^3, and transplanted into the right median lobe of the liver by excising the abdomen within 1 cm. Sm all spots were confirmed on the MRI image about 10 days after transplanting the liver cancer tissue into 20 BalB/C nude mice by the above method, so that rodents with well-established liver cancer were divided into 3 groups (see FIGS. 22A, 22B, and 22C), a solvent control (DMSO), a hit (M2) material at 40 mg/kg, and BI2536 at 4 mg/kg were injected into the abdominal cavity once every two days using less than 1.5% DMSO as a solvent (vehicle), and once a week, MRI images were used to select (follow up) rodents with constant tissue growth. Then, when the rapidly growing cancer tissue was 1 cm or less, the cancer tissue was observed after sacrificing the mice (11 treatments for 3 weeks).
# [5] = test system: HepG2 orthotopic xenograft; assay: Liver cancer orthotopic xenograft model (HepG2), 19 injections; type: in vivo, BalB/c nude mice; settings: M2 9.1 mg/kg
# Method: 5×10^6 HepG2 cells, which are a hepatocellular carcinoma cell line, were injected into the back skin of BalB/c nude mice, and when a sufficient cancer tissue was formed about 3 weeks later, the tissue was removed, uniformly cut into 1 mm^3, and transplanted into the right median lobe of the liver by excising the abdomen within 1 cm.
# The doses of 9.1 mg/kg of M2 and 1 mg/kg of BI2536 were selected based on the present inventor's previous in vitro experiments on HCC cells. Administration began 7 days after cell injection, and an equivalent amount of DMSO for the highest concentration of drug was used as a solvent control for each experiment. Each drug was injected a total of 19 injections based on 5 times/week.
structure (smiles),measurement,setting,value
"Cn1c2nc(=O)[nH]c(=O)c-2nc2ccccc21 [Compound 2, 10-methyl-2H,3H,4H,10H-benzo[g]pteridine-2,4-dione]",number of cancer cells,[1],the number of cancer cells was remarkably reduced in a dose-dependent manner
same,areas of liver cancer cells,[2],remarkably reduced in a dose-dependent manner
same,degree of staining of NCAPG2 in the chromosome arm and kinetochore,[3],reduced
same,position of PLK1,PLK1,difficult for PLK1 to be located in a normal position
same,r-tubulin located in the centrosome (staining / position),PLK1,weakly stained
same,apoptosis cells,HepG2 cell,apoptosis cells were increased
same,apoptosis with increasing dose,HepG2 cell,apoptosis was increased in a dose-dependent manner
same,cell viability,HepG2 cells,the relatively less the cell viability became
same,number of cancer cells,[4],remarkably reduced the number of cancer cells in a dose-dependent manner
same,volume of the cancer tissue,human liver cancer PDX,reduced remarkably
same,weight of the cancer tissue,human liver cancer PDX,reduced remarkably
same,progression of the HCC xenograft calculated by the growth inhibition index,"[5]; BI2536 1 mg/kg, 19 injections",suppressed the progression of the HCC xenograft
same,"growth of tumor cells (macroscopic morphology, MRI)","[5]; BI2536 1 mg/kg, 19 injections, 5 times/week",the growth of tumor cells was suppressed
same,mitotic index,"[5]; histological staining, compared to the control",decreased
